One block for each compound: values may come before it. Activity calls are given as the source filed them.
Tests used:
[1] = molecular target: T1, Trace amine-associated receptor 1 (Homo sapiens, UniProt Q96RJ0); assay: Counterscreen for agonists of the human trace amine associated receptor 1 (hTAAR1): Fluorescence-based cell-based high throughput dose response assay to identify hTAAR1 agonist that also desensitize TAAR1 receptor response.; assay type: functional
T1 sequence (Q96RJ0 whole entry): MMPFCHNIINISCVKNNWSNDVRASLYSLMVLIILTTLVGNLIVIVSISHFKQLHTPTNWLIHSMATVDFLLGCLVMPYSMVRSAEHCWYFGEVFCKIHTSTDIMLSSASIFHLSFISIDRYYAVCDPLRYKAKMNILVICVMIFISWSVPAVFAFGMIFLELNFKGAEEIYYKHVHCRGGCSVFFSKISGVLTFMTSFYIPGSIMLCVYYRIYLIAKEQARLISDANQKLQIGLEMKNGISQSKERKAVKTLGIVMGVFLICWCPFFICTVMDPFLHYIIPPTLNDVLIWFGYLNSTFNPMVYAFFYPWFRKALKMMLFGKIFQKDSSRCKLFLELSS

[2] = molecular target: T1, Trace amine-associated receptor 1; assay: Fluorescence-based cell-based high throughput dose response assay to identify agonists of the human trace amine associated receptor 1 (TAAR1).; assay type: functional
cells [3] = assay type: functional, cell-based
cells [4] = assay type: functional, cell-based; remark: listed apart in the source
[5] = molecular target: T2, Rac GTPase-activating protein 1 (Homo sapiens, UniProt Q9H0H5); assay: blockers of MgcRacGAP-driven Rac1 GTP hydrolysis – biochemical, ADP Hunter fluorescence, primary and confirmatory, confirmation (AID 624330); assay type: functional
T2 sequence (Q9H0H5 whole entry): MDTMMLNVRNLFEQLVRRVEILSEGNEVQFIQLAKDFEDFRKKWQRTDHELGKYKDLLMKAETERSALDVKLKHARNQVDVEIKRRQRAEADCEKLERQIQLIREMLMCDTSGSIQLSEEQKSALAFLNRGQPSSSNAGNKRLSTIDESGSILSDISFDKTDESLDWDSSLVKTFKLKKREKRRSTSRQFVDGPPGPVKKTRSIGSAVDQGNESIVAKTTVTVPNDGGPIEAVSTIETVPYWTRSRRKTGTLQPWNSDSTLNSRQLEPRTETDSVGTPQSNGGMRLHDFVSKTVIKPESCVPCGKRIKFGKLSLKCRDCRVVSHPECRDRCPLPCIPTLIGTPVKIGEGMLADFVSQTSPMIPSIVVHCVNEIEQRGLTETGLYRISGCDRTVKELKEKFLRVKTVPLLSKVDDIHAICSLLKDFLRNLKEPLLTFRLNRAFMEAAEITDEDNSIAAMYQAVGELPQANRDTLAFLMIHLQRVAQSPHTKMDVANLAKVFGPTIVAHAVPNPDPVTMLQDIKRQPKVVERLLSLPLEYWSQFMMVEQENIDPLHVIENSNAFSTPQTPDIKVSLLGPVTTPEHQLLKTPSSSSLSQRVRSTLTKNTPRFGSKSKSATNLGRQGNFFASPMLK

[6] = viability loss in HeLa cells – cytotoxicity control for MgcRacGAP inhibitor project, dose response (AID 624300); assay type: functional
Large T antigen = Large T antigen (Simian virus 40, UniProt P03070); assay type: functional, Betapolyomavirus macacae;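 also: Confirmatory-stage PubChem screen for compounds that inhibit SV40 T antigen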
Leucine aminopeptidase = molecular target: T3, Leucine aminopeptidase (Plasmodium falciparum 3D7, UniProt Q8IL11); assay: P. falciparum M17LAP inhibitors, primary screen, biochemical, fluorogenic H-Leu-NHMec substrate, 1536-well (AID 1619); assay type: functional
T3 sequence (Q8IL11 whole entry): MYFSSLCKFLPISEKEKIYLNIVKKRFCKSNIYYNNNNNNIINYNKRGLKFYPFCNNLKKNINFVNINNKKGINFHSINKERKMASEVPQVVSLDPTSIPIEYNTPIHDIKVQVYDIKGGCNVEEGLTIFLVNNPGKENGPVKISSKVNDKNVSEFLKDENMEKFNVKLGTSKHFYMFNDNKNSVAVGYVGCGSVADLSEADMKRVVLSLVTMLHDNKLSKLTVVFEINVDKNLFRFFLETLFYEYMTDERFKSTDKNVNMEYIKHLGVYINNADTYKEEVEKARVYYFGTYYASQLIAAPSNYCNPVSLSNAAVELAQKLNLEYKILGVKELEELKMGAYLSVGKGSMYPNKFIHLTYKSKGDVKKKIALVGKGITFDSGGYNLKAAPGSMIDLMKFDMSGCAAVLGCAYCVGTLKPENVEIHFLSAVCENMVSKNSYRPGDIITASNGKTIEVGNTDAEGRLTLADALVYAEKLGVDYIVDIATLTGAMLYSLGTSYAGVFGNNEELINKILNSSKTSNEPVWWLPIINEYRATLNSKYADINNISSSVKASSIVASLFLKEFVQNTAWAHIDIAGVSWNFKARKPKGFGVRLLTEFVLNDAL

[7] = fluconazole-exposed Candida albicans growth modulators – fluorescence, retest, confirmation (AID 2467); assay type: functional, cell-based
[8] = Trypanosoma cruzi growth suppression in host cells – NIH3T3 host cells, beta-gal luminescence, confirmation (AID 2044); assay type: functional, cell-based;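 also: intracellular parasites grown in NIH/3T3 mouse fibroblasts as host cells; luminescent beta-galactosidase reporter signal from transgenic T. cruzi replicating inside host cells; inhibitors lower the luminescence signal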
[9] = NIH3T3 cell viability loss – ATP luminescence, mouse fibroblasts, counter-screen, dose response (AID 2010); assay type: functional, cell-based;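 also: cells exposed to compound for about 90 hours before reading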
[10] = NIH-3T3 fibroblast cytotoxicity, dose response, cytotoxicity control, cell-based, fluorescence, Alamar Blue, secondary assay (AID 2327); assay type: functional;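 also: NIH-3T3 mouse fibroblasts cultured with fluconazole at 8 µg/mL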
[11] = molecular target: T4, DNA repair and recombination protein RAD54-like (Homo sapiens, UniProt Q92698); assay: RAD54 Holliday junction migration blockers – biochemical, fluorescence, cherry-picked samples, dose series, confirmation (AID 651657); assay type: functional
T4 sequence (Q92698 whole entry): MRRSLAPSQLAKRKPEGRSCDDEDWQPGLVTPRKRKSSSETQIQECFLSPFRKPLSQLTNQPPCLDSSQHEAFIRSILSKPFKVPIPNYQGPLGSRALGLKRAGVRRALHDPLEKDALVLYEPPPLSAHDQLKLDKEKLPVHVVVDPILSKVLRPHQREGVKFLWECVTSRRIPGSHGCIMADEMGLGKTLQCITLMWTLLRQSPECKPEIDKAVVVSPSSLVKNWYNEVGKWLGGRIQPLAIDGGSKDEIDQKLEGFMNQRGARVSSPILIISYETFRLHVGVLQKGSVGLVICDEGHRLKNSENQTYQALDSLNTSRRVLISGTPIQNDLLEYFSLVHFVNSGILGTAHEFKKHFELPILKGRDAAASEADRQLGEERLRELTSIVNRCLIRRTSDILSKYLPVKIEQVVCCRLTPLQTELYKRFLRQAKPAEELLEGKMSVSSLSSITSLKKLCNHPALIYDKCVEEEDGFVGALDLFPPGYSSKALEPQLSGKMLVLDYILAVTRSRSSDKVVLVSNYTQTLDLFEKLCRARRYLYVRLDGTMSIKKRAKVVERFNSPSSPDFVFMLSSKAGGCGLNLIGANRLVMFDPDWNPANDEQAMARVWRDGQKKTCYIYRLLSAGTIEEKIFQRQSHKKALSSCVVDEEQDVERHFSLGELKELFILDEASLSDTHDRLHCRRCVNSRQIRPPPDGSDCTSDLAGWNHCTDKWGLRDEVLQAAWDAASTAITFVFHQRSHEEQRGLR

[12] = molecular target: T5, Oxysterols receptor LXR-beta (Homo sapiens, UniProt P55055); assay type: functional, cell-based;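 also: agonist activity at LXR measured by a cell-based luminescence readout across a dose range, run as a counterscreen for daf-12 agonists; HEK293 cells with Gal4-LXR fusion and GAL4-driven luciferase reporter; potency for activation of Gal4-LXR reporter so compounds are agonists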
T5 sequence (P55055 whole entry): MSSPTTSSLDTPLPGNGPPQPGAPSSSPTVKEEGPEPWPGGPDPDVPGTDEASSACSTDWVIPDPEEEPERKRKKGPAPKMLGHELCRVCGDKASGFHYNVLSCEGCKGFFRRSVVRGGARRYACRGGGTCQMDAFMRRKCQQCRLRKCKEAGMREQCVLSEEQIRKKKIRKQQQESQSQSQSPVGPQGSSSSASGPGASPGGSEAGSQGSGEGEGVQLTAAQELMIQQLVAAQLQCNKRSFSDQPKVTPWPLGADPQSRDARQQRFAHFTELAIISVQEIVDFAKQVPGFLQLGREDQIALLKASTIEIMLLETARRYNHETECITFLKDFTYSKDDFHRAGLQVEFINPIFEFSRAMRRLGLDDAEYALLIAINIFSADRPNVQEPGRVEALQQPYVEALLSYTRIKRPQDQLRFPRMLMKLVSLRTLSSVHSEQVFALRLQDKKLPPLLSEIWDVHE

[13] = molecular target: T6, Sentrin-specific protease 8 (Homo sapiens, UniProt Q96LD8); assay type: functional
T6 sequence (Q96LD8 whole entry): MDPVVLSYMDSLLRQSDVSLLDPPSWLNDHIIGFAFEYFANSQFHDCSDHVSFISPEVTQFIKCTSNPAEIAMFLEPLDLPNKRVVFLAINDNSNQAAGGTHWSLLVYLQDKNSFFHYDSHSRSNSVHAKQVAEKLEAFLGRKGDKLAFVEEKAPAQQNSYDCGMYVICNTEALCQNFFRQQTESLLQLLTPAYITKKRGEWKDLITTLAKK

[14] = molecular target: T6, Sentrin-specific protease 8; assay type: functional; remark: listed apart in the source
[15] = molecular target: T7, Heat shock factor protein 1 (Mus musculus, UniProt P38532); assay: enhancement of HSF1-driven luciferase signal – cell-based, NIH3T3, luminescence, dose retest, confirmation (AID 435004); assay type: functional;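 also: stress induced by proteasome inhibitor MG132 added 30 min after compound; luciferase reporter driven by HSF1 response element in NIH3T3 cells; actives raise luminescence as potentiators of the MG132 stress response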
T7 sequence (P38532 whole entry): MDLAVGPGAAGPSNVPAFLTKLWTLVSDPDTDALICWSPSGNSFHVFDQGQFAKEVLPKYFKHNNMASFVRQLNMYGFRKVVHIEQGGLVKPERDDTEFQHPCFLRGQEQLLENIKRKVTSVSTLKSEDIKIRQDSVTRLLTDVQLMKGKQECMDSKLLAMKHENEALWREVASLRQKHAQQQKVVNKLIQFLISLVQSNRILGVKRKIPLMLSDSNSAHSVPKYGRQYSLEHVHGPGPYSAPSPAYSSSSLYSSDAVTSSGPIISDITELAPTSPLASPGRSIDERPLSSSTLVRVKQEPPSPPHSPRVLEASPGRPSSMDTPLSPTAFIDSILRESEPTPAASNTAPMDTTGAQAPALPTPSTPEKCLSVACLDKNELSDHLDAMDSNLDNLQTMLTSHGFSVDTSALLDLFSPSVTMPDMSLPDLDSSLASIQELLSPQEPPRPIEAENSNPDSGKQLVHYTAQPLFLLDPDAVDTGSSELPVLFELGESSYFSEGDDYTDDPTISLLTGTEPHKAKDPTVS

[16] = molecular target: T8, DNA repair protein RAD52 homolog (Homo sapiens, UniProt P43351); assay type: functional, biochemical
T8 sequence (P43351 whole entry): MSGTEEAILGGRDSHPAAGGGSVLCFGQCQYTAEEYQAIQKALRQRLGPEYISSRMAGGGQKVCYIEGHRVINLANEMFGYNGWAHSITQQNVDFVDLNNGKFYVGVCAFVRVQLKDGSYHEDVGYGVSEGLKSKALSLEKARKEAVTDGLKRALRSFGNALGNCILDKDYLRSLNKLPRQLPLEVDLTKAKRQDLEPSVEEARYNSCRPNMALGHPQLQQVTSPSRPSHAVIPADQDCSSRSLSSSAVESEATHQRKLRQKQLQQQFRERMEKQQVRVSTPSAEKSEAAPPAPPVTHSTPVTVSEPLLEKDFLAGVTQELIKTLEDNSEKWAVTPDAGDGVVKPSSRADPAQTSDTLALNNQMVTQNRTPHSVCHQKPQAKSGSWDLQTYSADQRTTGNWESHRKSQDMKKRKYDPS

Large T antigen, sequence (P03070 whole entry): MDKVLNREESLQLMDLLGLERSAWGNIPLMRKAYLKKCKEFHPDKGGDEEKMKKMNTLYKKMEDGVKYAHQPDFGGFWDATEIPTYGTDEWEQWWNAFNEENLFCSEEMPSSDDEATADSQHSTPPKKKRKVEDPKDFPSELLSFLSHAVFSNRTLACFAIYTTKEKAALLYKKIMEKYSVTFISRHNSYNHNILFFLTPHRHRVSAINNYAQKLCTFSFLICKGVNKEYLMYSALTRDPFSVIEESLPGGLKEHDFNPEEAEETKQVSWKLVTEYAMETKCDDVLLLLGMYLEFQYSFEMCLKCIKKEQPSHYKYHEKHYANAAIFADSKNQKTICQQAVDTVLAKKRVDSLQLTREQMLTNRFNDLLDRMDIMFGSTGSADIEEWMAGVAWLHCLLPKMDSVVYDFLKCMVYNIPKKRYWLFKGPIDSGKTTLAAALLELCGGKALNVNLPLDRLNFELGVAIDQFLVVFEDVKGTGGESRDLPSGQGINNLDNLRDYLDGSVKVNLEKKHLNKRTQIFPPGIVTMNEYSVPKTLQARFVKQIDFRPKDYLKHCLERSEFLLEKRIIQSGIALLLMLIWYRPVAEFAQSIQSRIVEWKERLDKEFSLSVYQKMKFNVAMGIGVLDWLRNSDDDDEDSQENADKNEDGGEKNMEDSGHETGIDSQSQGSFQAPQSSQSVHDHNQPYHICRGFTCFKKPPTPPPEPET

Compound: Cc1cccn2c(CNCC3OCCc4ccccc43)c(C(=O)N3CCCCC3)nc12 (centres undefined)
IC50 [1]: 4.82 µM (active)
EC50 [2]: 4.38 µM (active)
IC50 (cells [3]): > 29.9 µM (inactive)
EC50 (cells [4]): > 29.9 µM (inactive)

IC50 [5]: 62.7 µM (active)
Compound: OC(CON=C1c2ccccc2-c2ccccc21)CN1CCNCC1 (centres undefined)
CC50 [6]: 100 µM (active)

IC50 [5]: 26.1 µM (active)
IC50 (Large T antigen): 21.3 µM (active)
IC50 (Leucine aminopeptidase): 17.7 µM (active)
Compound: CC(C)C1N=C2c3ccccc3N=C(SCC(=O)c3ccc(O)c(O)c3)N2C1=O (centres undefined)
CC50 [6]: 100 µM (active)

Compound: N=C(NOC(=O)N1c2ccccc2Sc2ccccc21)c1ccccc1
EC50 [7]: 1.22 µM (active)
CC50 [6]: 100 µM (active)
EC50 [8]: 0.814 µM (active)
EC50 [9]: > 60 µM (not active)
EC50 [10]: > 160 µM (inactive)

AC50 [11]: 34 µM (active)
Compound: c1cc2c3c(cccc3c1)C(N1CCCCC1)=N2

EC50 [12]: > 67.5 µM (inactive)
Compound: Cc1cc(C(=O)CSc2ncccn2)c(C)n1Cc1ccco1

Compound: CCCCCCCCN1C(=O)[C@H](CC(=O)NCCc2ccccc2OC)C[C@@]2(C(=O)OC)CCCCC=C12
IC50 [1]: 9.43 µM (active)
EC50 [2]: 7.05 µM (active)
IC50 (cells [3]): > 29.9 µM (inactive)
EC50 (cells [4]): > 29.9 µM (inactive)

Compound: COc1ccc(Nc2cc(C)nc(N3CCOCC3)n2)cc1
IC50 [1]: > 29.9 µM (inactive)
EC50 [2]: 3.33 µM (active)
IC50 (cells [3]): > 29.9 µM (inactive)
EC50 (cells [4]): > 29.9 µM (inactive)

Compound: Cc1cc(C)n(C(CC(=O)N2CCc3ccccc3C2)C(=O)O)n1 (centres undefined)
IC50 [13]: 16.5 µM (active)
IC50 [1]: 4.32 µM (active)
IC50 [14]: > 100 µM (inactive)
EC50 [2]: 1.06 µM (active)
IC50 (cells [3]): > 29.9 µM (inactive)
EC50 (cells [4]): > 29.9 µM (inactive)

Compound: CC(Nc1ccnc2cc(Cl)ccc12)c1ccc(S(N)(=O)=O)cc1 (centres undefined)
IC50 [1]: > 29.9 µM (inactive)
EC50 [2]: 14.9 µM (inactive)
IC50 (cells [3]): > 29.9 µM (inactive)
EC50 (cells [4]): > 29.9 µM (inactive)

Compound: Cc1n[nH]c(-c2ccc(O)c(C)c2O)c1-c1cnn(-c2ccccc2)c1
EC50 [7]: > 38 µM (not active)
IC50 [5]: 85.8 µM (active)
EC50 [15]: > 260 µM (inactive)
CC50 [6]: 98.9 µM (active)
EC50 [10]: > 160 µM (inconclusive)

AC50 [16]: 4.7 µM (active)
AC50 [11]: 32.9 µM (active)
Compound: CN(C)CCCNc1nc2cc(-c3cccc(Cl)c3)sc2c(=O)n1C

EC50 [12]: > 67.6 µM (inactive)
Compound: Cc1ccc(-c2onc3ccc(C(=O)O)cc23)cc1

EC50 [12]: > 67.5 µM (inactive)
Compound: CCCSc1nsc(NC(=O)CC)n1

From ChEMBL document CHEMBL1201862, “PubChem BioAssay data set” (2004)
